Data taken from patent publication EP2561886A1, “Peptide adjuvant for improved peripheral analgesia” (Forschungsverbund Berlin e.V., priority 2011, dated 2013).
No end group written: not given here. TAMRA = 5(6)-carboxytetramethylrhodamine

Tests used:
Caco-2 cell monolayers [1] = test: Transcellular electrical resistance (TER) of Caco-2 cell monolayers; type: cell-based, human; details: for transcellular electrical resistance (TER): 300 µM
Protocol: (§1) Measurements of Transcellular Electrical Resistance (TER) and Paracellular Permeability. 24-well transwell filters (Millicell-CM, Millipore, Eschborn, Germany) were coated with rat tail collagen (250 µg/cm^2) for 16 h, washed twice with PBS (phosphate buffer saline) and preincubated with DMEM (600 µl basolateral, 400 µl apical for Endohm electrodes and 400 µl basolateral, 500 µl apical for the cellZscope system (nanoAnalytics GmbH, Münster, Germany)) for 24 h. Caco-2 cells (200.000 cell/cm^2) were seeded into the filters and grown to high-resistance TER (> 500 Ω/cm^2) for approx. 4 days. Medium was changed every day.
The experiments were performed as followed: After reaching high and stable TER values, cell monolayers were treated with peptides as described above. Control cells were incubated with respective medium. The TER values were measured at distinct time intervals. For re-arrangement of the monolayer, C1C2 was removed from the Caco-2 cells by exchange of the medium.

Caco-2 cell monolayers [2] = test: Paracellular permeability (permeation coefficient of FD-10 and Lucifer Yellow) of Caco-2 cell monolayers; type: cell-based, human; set-up: key to Paracellular Permeability: ↑ : increase; -: no change; details: for permeation of FD-10: FD-10 (10 kDa); for permeation of FD-10 / permeation of Lucifer Yellow: 48 h after peptide administration; for permeation of Lucifer Yellow: Lucifer Yellow (0.4 kDa); for Paracellular Permeability: summary table of claudin-derived peptides
Protocol: as §1
The permeation studies were performed by addition of 25 µg/ml Lucifer Yellow (0.4 kDa) or FD-10 (fluorescein isothiocyanate-dextran, 10 kDa) in HBSS (Hank's balanced salt solution buffer) on the apical side and HBSS alone on the basolateral side. After 10 min, 100 µl probes were removed from the basolateral side and the fluorescence units were measured by a fluorescence plate reader (Tecan, Crailsheim, Germany) to calculate the PCoeff (permeation coefficient, cm/s). The obtained data were analyzed with GraphPad Prism 3.0 program (GraphPad Software, San Diego, USA).

[3] = system: perineurium of the sciatic nerve; test: Mechanical nociceptive thresholds (paw pressure threshold, modified Randall-Selitto test) after perineurial injection at the sciatic nerve; type: in vivo, Male Wistar rats; details: for Mechanical nociceptive thresholds (PPT) after injection of TTX: 10 µM TTX perineurially after peptide pretreatment (C1C2: 24-48 h); for mechanical nociceptive thresholds before the injection of DAMGO (Baseline) / mechanical nociceptive thresholds in contralateral paws: 400 µM peptide perineurially; for mechanical nociceptive thresholds in contralateral paws: contralateral paw
Excerpt: Animals. Animal protocols were approved by the animal care committee of the Regierung von Unterfranken and are in accordance with the International Association for the Study of Pain (44). Male Wistar rats weighing 180-220 g were used.
(§2) Perineurial Injection at the Sciatic Nerve. Nociceptive inputs from the rat hind paw travels through the sciatic nerve. Under brief isoflurane anesthesia, the right sciatic nerve was located using a 22 G needle connected to a nerve stimulator (Stimuplex Dig RC; Braun, Melsungen, Germany) as previously described (45). The needle was advanced to the point of maximal stimulation at 0.2 mA. 300 µl of the indicated substances was injected. If more than one injection within half hour was necessary the total injected volume was maintained at 300 µl.
(§3) Peptides were dissolved in 0.9% NaCl and injected perineurially in the indicated concentrations. Measurements (nociceptive thresholds, tissue harvest for Western blot or immunohistochemistry) were undertaken 24-96 h after peptide injection.
Measurements of Nociceptive Thresholds. Mechanical thresholds were determined using the paw pressure algesiometer (modified Randall-Selitto test; Ugo Basile, Comerio, Italy) as described before (47). The pressure required to elicit paw withdrawal, the paw pressure threshold (PPT), was determined in blinded experiments. Averages were calculated from three measurements each. An increase in PPT was interpreted as antinociception (analgesia), a decrease in PPT was interpreted as hyperalgesia (pain). Measurements were taken 10-60 min after injection of 100 µl containing 30 µg DAMGO or 10 µM TTX. The optimal doses of DAMGO or TTX have been evaluated in pilot studies (data not shown), but are similar to doses used for intraplantar injection in rats.

[4] = system: HEK-293 cells stably transfected with claudin-1-YFP; test: Confocal microscopy of peptide internalization in claudin-1-YFP expressing HEK-293 cells; type: cell-based, human; details: 40 µM
Protocol: (§4) Cell Culture. Caco-2 (colorectal adenocarcinoma) cells (41) were grown in a humidified atmosphere at 37 °C and 10% CO2, whereas HEK-293 (human embryonic kidney) cells (42) and HEK-293 cells stably transfected with claudin-1-YFP (yellow fluorescence protein) (43) were grown at 37 °C and 5% CO2. Cells were cultured in DMEM (Dulbecco's modified Eagle's medium) containing 10% fetal calf serum, 100 units/ml penicillin, 100 µg/ml streptomycin, and 1% L-analyl-L-glutamine.
(§5) Confocal Microscopy. HEK-293 cells and stably claudin-1-YFP expressing HEK-293 cells were transferred into 6-well plates containing collagen-coated cover-slips as described above and grown to 60-70% confluence. Then, cells were treated with the TAMRA-labeled peptide (40 µM) for 15 min, 35 min, and 24 h, respectively. Pluronic ®F-68 (0.0012%) was added as solution enhancer. After removing of the peptide, cells were analyzed with the LSM 510 Meta confocal microscope (Zeiss, Jena, Germany).

wild type HEK-293 cells = test: Confocal microscopy of peptide internalization in wild type HEK-293 cells; type: cell-based, human; details: 40 µM, 24 h
Protocol: as §4, §5

claudin-1 [5] = biological target: T1, claudin-1 (Homo sapiens, UniProt O95832); test: Immunocytochemistry of claudin-1 and ZO-1 in Caco-2 cell monolayers; type: cell-based; details: 300 µM, 24 and 48 h after treatment
T1 construct: Caco-2 cells express several TJ proteins; endogenous in cells; host or cells: Caco-2
T1 sequence (O95832 1-211): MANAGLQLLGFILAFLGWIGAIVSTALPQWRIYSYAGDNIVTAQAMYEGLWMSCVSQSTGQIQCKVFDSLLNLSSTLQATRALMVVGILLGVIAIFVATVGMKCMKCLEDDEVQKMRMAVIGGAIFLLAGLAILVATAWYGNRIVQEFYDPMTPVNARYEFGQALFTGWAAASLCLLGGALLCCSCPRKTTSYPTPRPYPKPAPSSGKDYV
Protocol: Immunocytochemistry. Immunocytochemistry was performed as previously described (46). Caco-2 cells were transferred into 6-well plates containing collagen-coated cover-slips and grown to 60-70% confluence before use. Cells were treated with C1C2 (300 µM) as well as the control treated without peptide for 24 and 48 h, respectively. The medium was changed, followed by incubation with rabbit anti-claudin-1 and rabbit anti-ZO-1 (zonula occludens protein) antibodies and incubated with Alexa-Fluor 488-conjugated goat anti-rabbit secondary antibody. Cells were analyzed with the confocal microscope.

claudin-1 [6] = biological target: T2, claudin-1 (Rattus norvegicus, UniProt P56745); test: Immunohistochemistry of claudin-1 in the sciatic nerve after perineurial injection; type: in vivo; details: 400 µM perineurial injection, after 24 h
T2 construct: from tissue; host or cells: sciatic nerve (perineurium) of male Wistar rats
T2 sequence (P56745 1-211): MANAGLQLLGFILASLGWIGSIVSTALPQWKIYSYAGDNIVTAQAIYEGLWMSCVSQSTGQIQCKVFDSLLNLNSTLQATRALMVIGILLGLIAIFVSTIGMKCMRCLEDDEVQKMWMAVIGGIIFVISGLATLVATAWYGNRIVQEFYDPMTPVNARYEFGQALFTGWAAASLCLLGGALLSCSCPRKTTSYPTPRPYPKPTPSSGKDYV
Protocol: as §2, §3
The sciatic nerve was embedded in tissue-Tek compound (O.C.T., Miles Inc. Elkhart, Indiana) for claudin-1 staining. Sections (7-10 µm) were mounted onto gelatin-coated slides. Sections were fixed with acetone for 10 min at 4°C, washed in 0.01 M PBS (pH 7.4) for 10 min, incubated for 120 min in PBS containing 1% Triton X-100, washed in 0.01 M PBS and incubated for 30 min in 3% bovine serum albumin plus 1% normal goat serum blocking solution to prevent nonspecific binding. […] Finally, the sections were mounted and analyzed using the laser scanning microscope (Zeiss, Jena, Germany).

claudin-1 [7] = biological target: T2, claudin-1; test: Western blot of claudin-1 in sciatic nerve fractions after perineurial injection; type: in vivo; details: 400 µM perineurial injection
Protocol: as §2, §3
Western Blot Analysis. […] Extracted protein was diluted in lysis buffer and quantified using the BCA protein assay reagent (Pierce, Rockford, IL, USA) and a plate reader (Tecan, Grödig, Austria). […] Proteins were detected using specific antibodies against claudin-1 (Invitrogen, Carlsbad, CA, USA) and as protein loading control […]-actin (Sigma Aldrich, Taufkirchen, Germany), respectively. Visualization was done by luminescence.

ESATHSTGITQSDIYSTLLGLPADIQAAQ-NH2 [Peptide C2C2, peptide from the C-terminal part of the ECL1 of rat claudin-2, same modifications as C1C2, applied as negative control, reference compound]
transcellular electrical resistance (TER) (Caco-2 cell monolayers [1]; bilateral treatment, 24 h): unaffected
permeation of FD-10 (Caco-2 cell monolayers [2]): did not influence
permeation of Lucifer Yellow (Caco-2 cell monolayers [2]): did not influence
Mechanical nociceptive thresholds (PPT) after injection of TTX [3]: unchanged
Mechanical nociceptive thresholds (paw pressure threshold, PPT) after injection of DAMGO ([3]; DAMGO perisciatic 0-4 d after perineurial peptide (400 µM)): unchanged

TAMRA-SSVSQSTGQIQSKVFDSLLNLNSTLQATR-NH2 ({TAMRA}-SSVSQSTGQIQSKVFDSLLNLNSTLQATR-NH2) [TAMRA-C1C2, C1C2 N-terminally labeled with TAMRA (5(6)-carboxytetramethylrhodamine)]
Paracellular Permeability (Caco-2 cell monolayers [2]): ↑
intracellular co-localization with claudin-1-YFP [4]: mainly co-localized
membrane-localized claudin-1-YFP ([4]; 24 h after treatment): decrease
internalization ([4]; 15 min, 35 min, 24 h): internalized
internalization (wild type HEK-293 cells): weak unspecific internalization

SSVSQSTGQIQSKVFDSLLNLNSTLQATR-NH2 [Peptide C1C2, 29 amino acid peptide derived from the C-terminal part of the ECL1 of rat claudin-1, Cys54/Cys64 substituted by serines, C-terminally amidated]
transcellular electrical resistance (TER) (Caco-2 cell monolayers [1]; apical treatment): significant reduction of the TER, but less efficient then the bilateral treatment
TER (Caco-2 cell monolayers [1]; bilateral application of 100, 200, and 300 µM): Time- and concentration-dependent reduction
transcellular electrical resistance (TER) (Caco-2 cell monolayers [1]; bilateral treatment, 24 h): significant reduction
recovery of the cell monolayer (barrier integrity) after removing peptide (Caco-2 cell monolayers [1]; peptide removed at 48 h, read 24 h later, i.e. after 72 h): Complete recovery
permeation of FD-10 (Caco-2 cell monolayers [2]): increased
permeation of Lucifer Yellow (Caco-2 cell monolayers [2]): increased
Paracellular Permeability (Caco-2 cell monolayers [2]): ↑
Mechanical nociceptive thresholds (PPT) after injection of TTX [3]: enhanced the effect of TTX
mechanical nociceptive thresholds before the injection of DAMGO (Baseline) ([3]; 0 h): 77.67 ± 1.8 g
mechanical nociceptive thresholds before the injection of DAMGO (Baseline) ([3]; 24 h): 74.67 ± 3.00 g
mechanical nociceptive thresholds before the injection of DAMGO (Baseline) ([3]; 48 h): 68.0 ± 2.02 g
mechanical nociceptive thresholds before the injection of DAMGO (Baseline) ([3]; 72 h): 69.00 ± 1.861 g
mechanical nociceptive thresholds before the injection of DAMGO (Baseline) ([3]; 96 h): 73.3 ± 2.87 g
mechanical nociceptive thresholds in contralateral paws ([3]; 0 h): 77.33 ± 1.3 g
mechanical nociceptive thresholds in contralateral paws ([3]; 24 h): 63.33 ± 2.36 g
mechanical nociceptive thresholds in contralateral paws ([3]; 48 h): 67.67 ± 2.03 g
mechanical nociceptive thresholds in contralateral paws ([3]; 72 h): 65.0 ± 1.25 g
mechanical nociceptive thresholds in contralateral paws ([3]; 96 h): 67.67 ± 2.09 g
mechanical nociceptive thresholds (PPT) after DAMGO ([3]; 24 h after perineurial 100 µM peptide, 10 min after 30 µg DAMGO): increase
PPT after DAMGO ([3]; 48 h after perineurial 400 µM peptide, 10 min after 30 µg DAMGO): Significant increases
membrane-localized claudin-1 (claudin-1 [5]): clear decrease
claudin-1 immunoreactivity in the perineurium (claudin-1 [6]): decreased
claudin-1 protein expression in the membrane (claudin-1 [7]; 24 h and 48 h, membrane fraction): decreased
claudin-1 protein expression in the cytosol (claudin-1 [7]; cytosol fraction): No change
